US10954252B1, “Inhibitors of human immunodeficiency virus replication” (ViiV HEALTHCARE UK (NO.5) LIMITED, priority 2017, dated 2021)

What was measured:
[1] = system: recombinant NL4-3 virus (nef section replaced with Renilla luciferase gene) in MT-2 cells; assay: HIV cell culture assay (antiviral activity, luciferase readout); assay type: cell-based; conditions: MT-2 cells infected for 4-5 days with recombinant NL4-3 luciferase virus
Summary of the method: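 Serially diluted compounds were present throughout a 4-5 day infection of MT-2 cells by recombinant NL4-3 whose nef region partly encodes Renilla luciferase. Antiviral activity was taken from live-cell luciferase signal, with the 50% effective concentration fitted by the exponential median effect equation.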

uninfected MT2 cells = assay: Compound cytotoxicity, XTT-based colorimetric assay; assay type: cell-based
Summary of the method: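 XTT colorimetric read-out on day 4 gave CC50 values, using MT2 cells left uninfected but otherwise handled as in the antiviral assay.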

SMILES	EC50 ([1]; Table 1a)	CC50 (uninfected MT2 cells; Table 1a, day 4, XTT)	EC50 ([1]; Table 1)	CC50 (uninfected MT2 cells; Table 1, day 4, XTT)	EC50 ([1]; Renilla, NL43, Table 1a)
Cn1ccc2nc(C(Cc3cc(F)cc(F)c3)NC(=O)Cn3nc(C(F)F)c4c3C(F)(F)[C@@H]3C[C@H]43)c(-c3ccc(Cl)c4c(NS(C)(=O)=O)nn(C)c34)cc21 (single isomer, unassigned) [Example 118]	0.162 nM	> 10000 nM	–	–	–
Cn1nc(NS(C)(=O)=O)c2c(Cl)ccc(-c3cc4cn[nH]c4nc3C(Cc3cc(F)cc(F)c3)NC(=O)Cn3nc(C(F)F)c4c3C(F)(F)[C@@H]3C[C@H]43)c21 (single isomer, unassigned) [Example 6.2]	–	–	4.3 nM	> 10000 nM	–
Cn1nc(NS(C)(=O)=O)c2c(Cl)ccc(-n3c([C@H](Cc4cc(F)cc(F)c4)NC(=O)Cn4nc(C(F)F)c5c4C(F)(F)[C@@H]4C[C@H]54)nc4ccc(Cl)c(F)c4c3=O)c21 (single isomer, unassigned) [Example 177]	45 nM	> 1000 nM	–	–	–
Cn1nc(NS(C)(=O)=O)c2c(Cl)ccc(-n3c([C@H](Cc4cc(F)cc(F)c4)NC(=O)Cn4nc(C(F)F)c5c4CCC5)nc4c(F)cc(F)cc4c3=O)c21 (single isomer, unassigned) [Example 100]	0.033 nM	> 1000 nM	–	–	–
Cn1nc(NS(C)(=O)=O)c2c(Cl)ccc(-n3c([C@H](Cc4cc(F)cc(F)c4)NC(=O)Cn4nc(C(F)F)c5c4C(F)(F)[C@@H]4C[C@H]54)nc4cc(CS(C)(=O)=O)ccc4c3=O)c21 (mixture of isomers) [Example 202, N—((S)-1-(3-(4-chloro-1-methyl-3-(methylsulfonamido)-1H-indazol-7-yl)-7-((methylsulfonyl)methyl)-4-oxo-3,4-dihydroquinazolin-2-yl)-2-(3,5-difluorophenyl)ethyl)-2-((3bS,4aR)-3-(difluoromethyl)-5,5-difluoro-3b,4,4a,5-tetrahydro-1H-cyclopropa[3,4]cyclopenta[1,2-c]pyrazol-1-yl)acetamide]	0.3 nM	> 1000 nM	–	–	–
COc1cccc2c(=O)n(-c3ccc(Cl)c4c(NS(C)(=O)=O)nn(C)c34)c([C@H](Cc3cc(F)cc(F)c3)NC(=O)Cn3nc(C(F)F)c4c3C(F)(F)[C@@H]3C[C@H]43)nc12 (single isomer, unassigned) [Example 104]	–	> 1000 nM	–	–	0.064 nM
Cn1ccc2nc([C@@H](Cc3cc(F)cc(F)c3)NC(=O)Cn3nc(C(F)F)c4c3C(F)(F)[C@@H]3C[C@H]43)c(-c3ccc(Cl)c4c(NS(C)(=O)=O)nn(C)c34)cc21 (single isomer, unassigned) [Example 122]	172 nM	> 10000 nM	–	–	–
COc1cc(F)c2c(=O)n(-c3ccc(Cl)c4c(NS(C)(=O)=O)nn(C)c34)c([C@H](Cc3cc(F)cc(F)c3)NC(=O)Cn3ccc(C4CC4)n3)nc2c1 (single isomer, unassigned) [Example 190]	42.2 nM	> 1000 nM	–	–	–
O=C(Cn1nc(C(F)F)c2c1C(F)(F)[C@@H]1C[C@H]21)N[C@H](Cc1cc(F)cc(F)c1)c1nc2cn[nH]c2cc1-c1ccc2scnc2c1 (single isomer, unassigned) [Example 3.1]	–	–	22 nM	42100 nM	–
Cn1nc(NS(C)(=O)=O)c2c(Cl)ccc(-c3cc4[nH]ccc4nc3C(Cc3cc(F)cc(F)c3)NC(=O)Cn3nc(C(F)F)c4c3C(F)(F)[C@@H]3C[C@H]43)c21 (single isomer, unassigned) [Example 5.2]	–	–	400 nM	> 10000 nM	–
COc1c(F)ccc2c(=O)n(-c3ccc(Cl)c4c(NS(C)(=O)=O)nn(C)c34)c([C@H](Cc3cc(F)cc(F)c3)NC(=O)Cn3nc(C(F)F)c4c3C(F)(F)[C@@H]3C[C@H]43)nc12 (single isomer, unassigned) [Example 110]	0.072 nM	> 1000 nM	–	–	–
O=C(Cc1c[nH]c2ccc(O)cc12)NC(Cc1cc(F)cc(F)c1)c1nc2cn[nH]c2cc1-c1ccc2scnc2c1 (single isomer, unassigned) [Example 3.4, N-(1-(6-(benzo[d]thiazol-5-yl)-1H-pyrazolo[4,3-b]pyridin-5-yl)-2-(3,5-difluorophenyl)ethyl)-2-(5-hydroxy-1H-indol-3-yl)acetamide]	–	–	470 nM	83900 nM	–
Cn1nc(NS(C)(=O)=O)c2c(Cl)ccc(-n3c([C@H](Cc4cc(F)cc(F)c4)NC(=O)Cn4nc(C(F)F)c5c4C(F)(F)[C@@H]4C[C@H]54)nc4cc(S(C)(=O)=O)ccc4c3=O)c21 (mixture of isomers) [Example 200, N—((S)-1-(3-(4-chloro-1-methyl-3-(methylsulfonamido)-1H-indazol-7-yl)-7-(methylsulfonyl)-4-oxo-3,4-dihydroquinazolin-2-yl)-2-(3,5-difluorophenyl)ethyl)-2-((3bS,4aR)-3-(difluoromethyl)-5,5-difluoro-3b,4,4a,5-tetrahydro-1H-cyclopropa[3,4]cyclopenta[1,2-c]pyrazol-1-yl)acetamide]	0.2 nM	> 1000 nM	–	–	–
Cc1cccc2nc([C@H](Cc3cc(F)cc(F)c3)NC(=O)Cn3ccc(C4CC4)n3)n(-c3ccc(Cl)c4c(NS(C)(=O)=O)nn(C)c34)c(=O)c12 (single isomer, unassigned) [Example 134]	2.21 nM	> 1000 nM	–	–	–
CC(C)c1ccc(-c2cc3[nH]ccc3nc2[C@H](Cc2cc(F)cc(F)c2)NC(=O)Cn2nc(C(F)F)c3c2C(F)(F)[C@@H]2C[C@H]32)cn1 [Example 82, 2-((3bS,4aR)-3-(difluoromethyl)-5,5-difluoro-3b,4,4a,5-tetrahydro-1H-cyclopropa[3,4]cyclopenta[1,2-c]pyrazol-1-yl)-N—((S)-2-(3,5-difluorophenyl)-1-(6-(6-isopropylpyridin-3-yl)-1H-pyrrolo[3,2-b]pyridin-5-yl)ethyl)acetamide]	–	6310 nM	–	–	3.81 nM
Cn1nc(NS(C)(=O)=O)c2c(Cl)ccc(-c3c(C(Cc4cc(F)cc(F)c4)NC(=O)Cn4nc(C(F)F)c5c4C(F)(F)[C@@H]4C[C@H]54)ncc4[nH]cnc34)c21 (single isomer, unassigned) [Example 7.4]	–	–	300 nM	> 10000 nM	–
Cn1nc(NS(C)(=O)=O)c2c(Cl)ccc(-n3c([C@H](Cc4cc(F)cc(F)c4)NC(=O)Cn4ccc(C5CC5)n4)nc4c(F)ccc(F)c4c3=O)c21 (single isomer, unassigned) [Example 146]	0.62 nM	> 1000 nM	–	–	–
Cn1nc(NS(C)(=O)=O)c2c(Cl)ccc(-n3c([C@H](Cc4cc(F)cc(F)c4)NC(=O)Cn4nc(C(F)F)c5c4C(F)(F)[C@@H]4C[C@H]54)nc4c(Cl)cccc4c3=O)c21 (single isomer, unassigned) [Example 102]	1.04 nM	> 1000 nM	–	–	–
Cn1nc(NS(C)(=O)=O)c2c(Cl)ccc(-n3c([C@H](Cc4cc(F)cc(F)c4)NC(=O)Cn4nc(C(F)F)c5c4C(F)(F)[C@@H]4C[C@H]54)nc4cc(C5CC5)ccc4c3=O)c21 (mixture of isomers) [Example 198, N—((S)-1-(3-(4-chloro-1-methyl-3-(methylsulfonamido)-1H-indazol-7-yl)-7-cyclopropyl-4-oxo-3,4-dihydroquinazolin-2-yl)-2-(3,5-difluorophenyl)ethyl)-2-((3bS,4aR)-3-(difluoromethyl)-5,5-difluoro-3b,4,4a,5-tetrahydro-1H-cyclopropa[3,4]cyclopenta[1,2-c]pyrazol-1-yl)acetamide]	0.15 nM	> 1000 nM	–	–	–
Cn1nc(NS(C)(=O)=O)c2c(Cl)ccc(-n3c([C@H](Cc4cc(F)cc(F)c4)NC(=O)Cn4ccc(C5CC5)n4)nc4cccc(F)c4c3=O)c21 (single isomer, unassigned) [Example 184]	0.35 nM	> 1000 nM	–	–	–
Cc1nc2nc(C(Cc3cc(F)cc(F)c3)NC(=O)Cn3nc(C(F)F)c4c3C(F)(F)[C@@H]3C[C@H]43)c(-c3ccc(Cl)c4c(NS(C)(=O)=O)nn(C)c34)cc2s1 (single isomer, unassigned) [Example 2.2]	–	–	1150 nM	> 10000 nM	–
Cn1nc(NS(C)(=O)=O)c2c(Cl)ccc(-n3c([C@H](Cc4cc(F)cc(F)c4)NC(=O)Cn4nc(C(F)F)c5c4C(F)(F)[C@@H]4C[C@H]54)nc4cc(C(C)(C)S(C)(=O)=O)ccc4c3=O)c21 (mixture of isomers) [Example 208, N—((S)-1-(3-(4-chloro-1-methyl-3-(methylsulfonamido)-1H-indazol-7-yl)-7-(2-(methylsulfonyl)propan-2-yl)-4-oxo-3,4-dihydroquinazolin-2-yl)-2-(3,5-difluorophenyl)ethyl)-2-((3bS,4aR)-3-(difluoromethyl)-5,5-difluoro-3b,4,4a,5-tetrahydro-1H-cyclopropa[3,4]cyclopenta[1,2-c]pyrazol-1-yl)acetamide]	0.083 nM	> 1000 nM	–	–	–
Cn1nc(NS(C)(=O)=O)c2c(Cl)ccc(-n3c([C@H](Cc4cc(F)cc(F)c4)NC(=O)Cn4nc(C(F)F)c5c4C(F)(F)[C@@H]4C[C@H]54)nc4ncccc4c3=O)c21 (single isomer, unassigned) [Example 10.40]	–	–	0.0189 nM	> 10000 nM	–
COc1cc(F)c2c(=O)n(-c3ccc(Cl)c4c(NS(C)(=O)=O)nn(C)c34)c([C@H](Cc3cc(F)cc(F)c3)NC(=O)Cn3nc(C(F)F)c4c3C(F)(F)[C@@H]3C[C@H]43)nc2c1 (single isomer, unassigned) [Example 187]	178 nM	> 1000 nM	–	–	–
Cn1nc(NS(C)(=O)=O)c2c(Cl)ccc(-c3cc4scnc4nc3C(Cc3cc(F)cc(F)c3)NC(=O)Cn3nc(C(F)F)c4c3C(F)(F)[C@@H]3C[C@H]43)c21 (single isomer, unassigned) [Example 1.6]	–	–	1780 nM	> 10000 nM	–
Cn1nc(NS(C)(=O)=O)c2c(Cl)ccc(-n3c([C@H](Cc4cc(F)cc(F)c4)NC(=O)Cn4ccc(C5CC5)n4)nc4cc(CS(C)(=O)=O)ccc4c3=O)c21 (single isomer, unassigned) [Example 206]	–	> 1000 nM	–	–	0.64 nM
